# US20160136120A1, “TRANSDERMAL DELIVERY KITS” (ASCLEMED USA, INC. dba EnovaChem Manufacturing, priority 2013, published 2016)
# Test: Stability tests of API mixed with Microderm base, stored in a jar with closed lid (LC-UV assay)
# Format: physicochemical
# Conditions: as illustrated in the stability studies
# Method: The stability tests were carried out by mixing the API (USP strength) with Microderm™, and placing the resulting composition in ajar with a closed lid.
# Column: 4.6-mm×25.0-cm; 5-μm packing L1
# Storage condition: 20° C. to 25° C. (68° F. to 77° F.)
smiles,measurement,value
"NCC(CC(=O)O)c1ccc(Cl)cc1 (stereo not drawn) [Baclofen, β-(4-chlorophenyl)-γ-aminobutyric acid]",Susceptibility to degradation,particularly susceptible to degradation
